Results published in PubChem BioAssay (NCI).
Where “and” joins values, the source holds several entries; their conditions need not be identical. Equal values may be shown once.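 Following 48 hours of exposure in 96-well plates, responses at five concentrations were used to interpolate endpoints linearly. GI50: concentration for 50% inhibition of growth. Definition used: TGI = concentration required for complete inhibition of growth.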

Columns and labels:
Assay in all cases: NCI anticancer screen, dose series, 48 h
M14 melanoma = system: M14 melanoma
OVCAR-4 ovarian = system: OVCAR-4 ovarian
UACC-62 melanoma = system: UACC-62 melanoma
HL-60(TB) leukemia = system: HL-60(TB) leukemia
UACC-257 melanoma = system: UACC-257 melanoma
TK-10 renal = system: TK-10 renal
OVCAR-5 ovarian = system: OVCAR-5 ovarian
BT-549 breast = system: BT-549 breast
RPMI-8226 leukemia = system: RPMI-8226 leukemia
CAKI-1 renal = system: CAKI-1 renal
NCI-H226 lung = system: NCI-H226 lung
CCRF-CEM leukemia = system: CCRF-CEM leukemia
NCI-H522 lung = system: NCI-H522 lung
T-47D breast = system: T-47D breast
NCI/ADR-RES ovarian = system: NCI/ADR-RES ovarian
K-562 leukemia = system: K-562 leukemia
SK-OV-3 ovarian = system: SK-OV-3 ovarian
A498 renal = system: A498 renal
HCT-116 colon = system: HCT-116 colon
SNB-75 CNS = system: SNB-75 CNS
COLO 205 colon = system: COLO 205 colon
SK-MEL-5 melanoma = system: SK-MEL-5 melanoma
HCT-15 colon = system: HCT-15 colon
A549 NSCLC = system: A549 NSCLC
SF-268 CNS = system: SF-268 CNS
HOP-92 NSCLC = system: HOP-92 NSCLC
LOX IMVI melanoma = system: LOX IMVI melanoma
IGROV1 ovarian = system: IGROV1 ovarian
MDA-MB-231 breast = system: MDA-MB-231 breast
RXF 393 renal = system: RXF 393 renal
KM12 colon = system: KM12 colon
MDA-MB-435 = system: MDA-MB-435
MCF7 breast = system: MCF7 breast
SW-620 colon = system: SW-620 colon
MDA-N = system: MDA-N
DU-145 prostate = system: DU-145 prostate
786-0 renal = system: 786-0 renal
HCC-2998 colon = system: HCC-2998 colon
HOP-62 NSCLC = system: HOP-62 NSCLC
ACHN renal = system: ACHN renal
SF-539 CNS = system: SF-539 CNS
SF-295 CNS = system: SF-295 CNS
NCI-H460 lung = system: NCI-H460 lung
OVCAR-8 ovarian = system: OVCAR-8 ovarian
SK-MEL-28 melanoma = system: SK-MEL-28 melanoma
PC-3 prostate = system: PC-3 prostate
MOLT-4 leukemia = system: MOLT-4 leukemia
U251 CNS = system: U251 CNS
OVCAR-3 ovarian = system: OVCAR-3 ovarian
SN12C renal = system: SN12C renal
NCI-H23 lung = system: NCI-H23 lung
UO-31 renal = system: UO-31 renal
EKVX NSCLC = system: EKVX NSCLC
HT29 colon = system: HT29 colon
MALME-3M melanoma = system: MALME-3M melanoma
SK-MEL-2 melanoma = system: SK-MEL-2 melanoma
SR leukemia = system: SR leukemia
SNB-19 CNS = system: SNB-19 CNS

O=C1C(N2CCN(CCOCCO)CC2)=C(Cl)C(=O)c2ncccc21
TGI (M14 melanoma): 39.2 µM
TGI (OVCAR-4 ovarian): 34.8 µM
TGI (UACC-62 melanoma): 43.8 µM
GI50 (HL-60(TB) leukemia): 2.24 µM
TGI (HL-60(TB) leukemia): 8.29 µM and 5.91 µM
TGI (UACC-257 melanoma): 39.9 µM
TGI (TK-10 renal): 48.5 µM
TGI (OVCAR-5 ovarian): 57.1 µM
TGI (BT-549 breast): 8.33 µM
TGI (RPMI-8226 leukemia): 47.8 µM
TGI (CAKI-1 renal): 31.8 µM
GI50 (NCI-H226 lung): > 100 µM
TGI (NCI-H226 lung): > 100 µM
GI50 (CCRF-CEM leukemia): 13.5 µM
TGI (CCRF-CEM leukemia): 4.44 µM and 35.9 µM
GI50 (NCI-H522 lung): 17.7 µM
TGI (NCI-H522 lung): 4.22 µM and 32.6 µM
TGI (T-47D breast): 6.75 µM
TGI (NCI/ADR-RES ovarian): > 100 µM
GI50 (K-562 leukemia): 13.3 µM
TGI (K-562 leukemia): 34.4 µM
GI50 (SK-OV-3 ovarian): > 100 µM
TGI (SK-OV-3 ovarian): > 100 µM
GI50 (A498 renal): > 100 µM
TGI (A498 renal): > 100 µM
GI50 (HCT-116 colon): 18.5 µM
TGI (HCT-116 colon): 33.5 µM
TGI (SNB-75 CNS): > 100 µM
GI50 (COLO 205 colon): 19.3 µM
TGI (COLO 205 colon): 36.8 µM
TGI (SK-MEL-5 melanoma): 30.6 µM
TGI (HCT-15 colon): 37.4 µM
GI50 (A549 NSCLC): > 100 µM
TGI (A549 NSCLC): > 100 µM
TGI (SF-268 CNS): 44.5 µM
GI50 (HOP-92 NSCLC): 16.7 µM
TGI (HOP-92 NSCLC): 6.27 µM and 31.4 µM
TGI (LOX IMVI melanoma): 26.7 µM
TGI (IGROV1 ovarian): 31.4 µM
TGI (MDA-MB-231 breast): 34.2 µM
TGI (RXF 393 renal): 35.1 µM
GI50 (KM12 colon): > 100 µM
TGI (KM12 colon): > 100 µM
GI50 (MDA-MB-435): 18.5 µM
GI50 (MCF7 breast): 18.3 µM
TGI (MCF7 breast): 5.97 µM and 36.7 µM
TGI (SW-620 colon): 50.7 µM
GI50 (MDA-N): 19.4 µM
TGI (MDA-N): 3.76 µM and 35 µM
TGI (DU-145 prostate): > 100 µM
TGI (786-0 renal): 36 µM
GI50 (HCC-2998 colon): > 100 µM
TGI (HCC-2998 colon): > 100 µM
GI50 (HOP-62 NSCLC): > 100 µM
TGI (HOP-62 NSCLC): > 100 µM
TGI (ACHN renal): 33.4 µM
TGI (SF-539 CNS): 44.6 µM
GI50 (SF-295 CNS): > 100 µM
TGI (SF-295 CNS): > 100 µM
TGI (NCI-H460 lung): > 100 µM
TGI (OVCAR-8 ovarian): 39.4 µM
TGI (SK-MEL-28 melanoma): 43.7 µM
TGI (PC-3 prostate): 38.9 µM
GI50 (MOLT-4 leukemia): 9.63 µM
TGI (MOLT-4 leukemia): 5.15 µM and 31.4 µM
TGI (U251 CNS): 35.9 µM
TGI (OVCAR-3 ovarian): 32.7 µM
TGI (SN12C renal): 35.3 µM
TGI (NCI-H23 lung): 42.5 µM
TGI (UO-31 renal): 33.6 µM
TGI (EKVX NSCLC): 35.1 µM
TGI (HT29 colon): 46 µM
GI50 (MALME-3M melanoma): 19.3 µM
TGI (MALME-3M melanoma): 33.8 µM
TGI (SK-MEL-2 melanoma): 43.9 µM

C1CSC[C@H]2COC[C@@H](CSCCS1)S2
TGI (M14 melanoma): > 100 µM
TGI (OVCAR-4 ovarian): > 100 µM
TGI (HL-60(TB) leukemia): > 100 µM
TGI (UACC-257 melanoma): > 100 µM
TGI (TK-10 renal): > 100 µM
TGI (OVCAR-5 ovarian): > 100 µM
TGI (BT-549 breast): > 100 µM
TGI (CCRF-CEM leukemia): > 100 µM
TGI (NCI-H522 lung): > 100 µM
TGI (T-47D breast): > 100 µM
TGI (SR leukemia): > 100 µM
TGI (NCI/ADR-RES ovarian): > 100 µM
TGI (K-562 leukemia): > 100 µM
TGI (HCT-116 colon): > 100 µM
TGI (SNB-75 CNS): > 100 µM
TGI (COLO 205 colon): > 100 µM
TGI (SK-MEL-5 melanoma): > 100 µM
TGI (HCT-15 colon): > 100 µM
TGI (A549 NSCLC): > 100 µM
TGI (SF-268 CNS): > 100 µM
TGI (HOP-92 NSCLC): > 100 µM
TGI (LOX IMVI melanoma): > 100 µM
TGI (MDA-MB-231 breast): > 100 µM
TGI (KM12 colon): > 100 µM
TGI (MDA-MB-435): > 100 µM
TGI (MCF7 breast): > 100 µM
TGI (SW-620 colon): > 100 µM
TGI (MDA-N): > 100 µM
TGI (DU-145 prostate): > 100 µM
TGI (786-0 renal): > 100 µM
TGI (HCC-2998 colon): > 100 µM
TGI (HOP-62 NSCLC): > 100 µM
TGI (SF-539 CNS): > 100 µM
TGI (SF-295 CNS): > 100 µM
TGI (NCI-H460 lung): > 100 µM
TGI (SNB-19 CNS): > 100 µM
TGI (OVCAR-8 ovarian): > 100 µM
TGI (SK-MEL-28 melanoma): > 100 µM
TGI (PC-3 prostate): > 100 µM
TGI (MOLT-4 leukemia): > 100 µM
TGI (U251 CNS): > 100 µM
TGI (OVCAR-3 ovarian): > 100 µM
TGI (SN12C renal): > 100 µM
TGI (NCI-H23 lung): > 100 µM
TGI (UO-31 renal): > 100 µM
TGI (EKVX NSCLC): > 100 µM
TGI (HT29 colon): > 100 µM

Cc1cn(C2CC(COCc3ccccc3)N(CCO[Si](C)(C)C(C)(C)C)O2)c(=O)[nH]c1=O (centres undefined)
TGI (M14 melanoma): 29.5 µM
TGI (OVCAR-4 ovarian): 33.4 µM
TGI (UACC-62 melanoma): 24.3 µM
TGI (TK-10 renal): 27.3 µM
TGI (OVCAR-5 ovarian): 32 µM
TGI (RPMI-8226 leukemia): 34.1 µM
TGI (CAKI-1 renal): 32.7 µM
TGI (NCI-H522 lung): 31.4 µM
TGI (T-47D breast): 31.1 µM
TGI (SR leukemia): 71.4 µM
TGI (NCI/ADR-RES ovarian): 28.9 µM
TGI (K-562 leukemia): 19.3 µM
TGI (SK-OV-3 ovarian): 31.4 µM
TGI (A498 renal): 36.8 µM
TGI (HCT-116 colon): 43 µM
TGI (COLO 205 colon): 28.4 µM
TGI (SK-MEL-5 melanoma): 12.9 µM
TGI (A549 NSCLC): 28.4 µM
TGI (SF-268 CNS): 35.7 µM
TGI (HOP-92 NSCLC): 25.7 µM
TGI (MDA-MB-231 breast): 33.2 µM
TGI (RXF 393 renal): 29 µM
TGI (KM12 colon): 31.1 µM
TGI (MDA-MB-435): 34.9 µM
TGI (MCF7 breast): 33 µM
TGI (SW-620 colon): 35.6 µM
TGI (MDA-N): 27.9 µM
TGI (DU-145 prostate): 31 µM
TGI (786-0 renal): > 100 µM
TGI (HOP-62 NSCLC): 31 µM
TGI (ACHN renal): 28.9 µM
TGI (SF-539 CNS): 33.9 µM
TGI (SF-295 CNS): 29.9 µM
TGI (NCI-H460 lung): 35.2 µM
TGI (SNB-19 CNS): 27.2 µM
TGI (OVCAR-8 ovarian): 28.8 µM
TGI (SK-MEL-28 melanoma): 34.7 µM
TGI (PC-3 prostate): 18.1 µM
TGI (MOLT-4 leukemia): 32.3 µM
TGI (U251 CNS): 62.5 µM
TGI (OVCAR-3 ovarian): 28.4 µM
TGI (SN12C renal): 25.1 µM
TGI (NCI-H23 lung): 30.7 µM
TGI (UO-31 renal): 28.2 µM
TGI (HT29 colon): 28.7 µM
TGI (MALME-3M melanoma): 34.3 µM
TGI (SK-MEL-2 melanoma): 30 µM
